According to patent US9932320B2 (BRISTOL-MYERS SQUIBB COMPANY, priority 2014, dated 2018):

Biological target: T1, AAK1 (GST-Xa-hAAK1) (Homo sapiens, UniProt Q2M2I8)
T1 construct: made in house
Assay: AAK1 Kinase Assay (Caliper LabChip, fluoresceinated peptide substrate)
Assay type: biochemical
Conditions: AAK1 functional potency; class symbols; read-out: IC50 (nM), functional potency as IC50 ranges
Protocol: The assays were performed in U-bottom 384-well plates. The final assay volume was 30 μl prepared from 15 μl additions of enzyme and substrates (fluoresceinated peptide (5-FAM)-Aha-KEEQSQITSQVTGQIGWR-NH2 and ATP) and test compounds in assay buffer (10 mM Tris-HCL pH 7.4, 10 mM MgCl2, 0.01% Tween-20 and 1.0 mM DTT). The reactions were initiated by the combination of bacterially expressed, GST-Xa-hAAK1 with substrates and test compounds. The reactions were incubated at room temperature for 3 hours and terminated by adding 60 μl of 35 mM EDTA buffer to each sample. The reactions were analyzed on the Caliper LabChip 3000 (Caliper, Hopkinton, Mass.) by electrophoretic separation of the fluorescent substrate and phosphorylated product. Inhibition data were calculated by comparison to EDTA quenched control reactions for 100% inhibition and vehicle-only reactions for 0% inhibition. The final concentration of reagents in the assays are ATP, 22 μM; (5-FAM)-Aha-KEEQSQITSQVTGQIGWR-NH2, 1.5 μM; GST-Xa-hAAK1, 3.5 nM; and DMSO, 1.6%. Dose response curves were generated to determine the concentration required inhibiting 50% of kinase activity (IC50). Compounds were dissolved at 10 mM in dimethylsulfoxide (DMSO) and evaluated at eleven concentrations. IC50 values were derived by non-linear regression analysis.

T1 sequence (Q2M2I8 whole entry): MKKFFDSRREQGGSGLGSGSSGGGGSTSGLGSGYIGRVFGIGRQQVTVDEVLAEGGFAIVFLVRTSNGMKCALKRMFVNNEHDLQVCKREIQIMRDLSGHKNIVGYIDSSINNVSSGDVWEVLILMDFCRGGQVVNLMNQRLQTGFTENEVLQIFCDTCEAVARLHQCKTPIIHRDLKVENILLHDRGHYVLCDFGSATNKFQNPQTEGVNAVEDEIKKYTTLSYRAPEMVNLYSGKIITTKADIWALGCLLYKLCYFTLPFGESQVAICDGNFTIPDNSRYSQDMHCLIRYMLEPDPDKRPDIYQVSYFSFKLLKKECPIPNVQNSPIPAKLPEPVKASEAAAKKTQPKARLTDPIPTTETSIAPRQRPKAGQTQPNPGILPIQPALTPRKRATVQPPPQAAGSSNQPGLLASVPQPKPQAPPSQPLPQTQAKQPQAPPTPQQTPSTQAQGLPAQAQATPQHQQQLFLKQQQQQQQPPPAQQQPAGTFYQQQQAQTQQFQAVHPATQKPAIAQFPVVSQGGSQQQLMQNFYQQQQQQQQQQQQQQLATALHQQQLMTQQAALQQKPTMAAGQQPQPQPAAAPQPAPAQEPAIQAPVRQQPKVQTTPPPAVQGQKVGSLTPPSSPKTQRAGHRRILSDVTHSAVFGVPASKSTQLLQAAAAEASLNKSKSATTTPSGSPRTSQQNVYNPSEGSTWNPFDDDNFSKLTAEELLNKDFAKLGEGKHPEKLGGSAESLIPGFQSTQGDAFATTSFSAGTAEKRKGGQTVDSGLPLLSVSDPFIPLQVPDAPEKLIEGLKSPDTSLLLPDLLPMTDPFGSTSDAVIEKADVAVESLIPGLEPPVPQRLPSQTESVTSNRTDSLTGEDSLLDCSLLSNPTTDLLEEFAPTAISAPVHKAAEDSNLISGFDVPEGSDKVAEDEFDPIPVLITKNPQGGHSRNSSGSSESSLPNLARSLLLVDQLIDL

Row | Compound | IC50
1 | CC(C)CC(N)c1ccc2cc(-c3ccc4cnccc4c3)ccc2n1 (stereo not shown) [Example 27, 1-(6-(isoquinolin-6-yl)quinolin-2-yl)-3-methylbutan-1-amine] | 101 to 2500 nM
2 | CC(C)CCc1nc2ccc(-c3ccncc3)cc2cc1C#N [Example 18, 2-Isopentyl-6-(pyridin-4-yl)quinoline-3-carbonitrile] | 101 to 2500 nM
3 | CC(C)CC(N)c1ccc2cc(-c3ccnc(N)c3)ccc2n1 (stereo not shown) [Example 29, 4-(2-(1-amino-3-methylbutyl)quinolin-6-yl)pyridin-2-amine] | 1 to 10 nM
4 | CC(=O)Nc1cc(-c2ccc3nc(C(=O)CC(C)C)ccc3c2)ccn1 [Example 30, N-(4-(2-(3-methylbutanoyl)quinolin-6-yl)pyridin-2-yl)acetamide] | 101 to 2500 nM
5 | CC(C)CCc1cc(=S)c2cc(-c3ccncc3)ccc2[nH]1 [Example 31, 2-isopentyl-6-(pyridin-4-yl)quinoline-4(1H)-thione] | 11 to 100 nM
6 | CC(C)CCc1ccc2cc(-c3ccncc3)ccc2n1 [Example 4, 2-Isopentyl-6-(pyridin-4-yl)quinoline] | 101 to 2500 nM
7 | CC(C)CC(N)c1ccc2cc(-c3ccnc(NC4CC4)c3)ccc2n1 (stereo not shown) [Example 38, 4-(2-(1-amino-3-methylbutyl)quinolin-6-yl)-N-cyclopropylpyridin-2-amine] | 11 to 100 nM
8 | CC(C)C[C@H](N)c1cc(C#N)c2cc(-c3ccncc3)ccc2n1 (single isomer, unassigned) [Example 8] | 1 to 10 nM
9 | CC(C)CC(=O)c1ccc2cc(-c3ccncc3)ccc2n1 [Example 19, 3-methyl-1-(6-(pyridin-4-yl)quinolin-2-yl)butan-1-one] | 101 to 2500 nM
10 | CC(C)CC(N)c1ccc2cc(-c3ccnc(C4CC4)c3)ccc2n1 (stereo not shown) [Example 50, 1-(6-(2-cyclopropylpyridin-4-yl)quinolin-2-yl)-3-methylbutan-1-amine] | 101 to 2500 nM
11 | CC(C)CC(N)c1ccc2cc(-c3ccncc3)ccc2n1 (single isomer, unassigned; (+)) [Example 21, (+)-3-methyl-1-(6-(pyridin-4-yl)quinolin-2-yl)butan-1-amine] | 11 to 100 nM

Next, values leading:

Row | IC50 | Compound
12 | 11 to 100 nM | COc1cc2nc(CCC(C)C)cc(Br)c2cc1-c1cnco1 [Example 10, 5-(4-Bromo-2-isopentyl-7-methoxyquinolin-6-yl)oxazole]
13 | 11 to 100 nM | COc1cc2nc(CCC(C)C)cc(O)c2cc1-c1cnco1 [Example 9, 2-Isopentyl-7-methoxy-6-(oxazol-5-yl)quinolin-4-ol]
14 | 101 to 2500 nM | COc1cc(CCC(C)C)nc2ccc(-c3ccncc3)cc12 [Example 2, 2-Isopentyl-4-methoxy-6-(pyridin-4-yl)quinoline]
15 | 11 to 100 nM | CC(C)CCc1cc(N(C)C)c2cc(-c3ccncc3)ccc2n1 [Example 5, 2-Isopentyl-N,N-dimethyl-6-(pyridin-4-yl)quinolin-4-amine]
16 | 11 to 100 nM | CC(C)CCc1nc2ccc(-c3ccncc3)cc2c(O)c1Br [Example 16, 3-Bromo-2-isopentyl-6-(pyridin-4-yl)quinolin-4-ol]
